Read-outs that look alike come from different tables or passages of the source. Starred links: 1 amine or outer side, 2 acyl side, 3 side chain; linkers in the order of their positions; H or OH if unused. Positions of bridges follow the written chain, without caps; N, C: chain ends. Non-standard residues stand in square brackets, D forms with d. Residues, ends and D or L forms follow the SMILES beside them. ξ: configuration not given here. *: point of attachment. X1 = O=C(CCOCC(COCCC(=O)NCCOCCOCCOCCOCC1OCC(Nc2cncc(C(F)(F)F)n2)C(O)C1O)NCC(=O)*)NCCOCCOCCOCCOCC1OCC(Nc2cncc(C(F)(F)F)n2)C(O)C1O; ξPro(4ξ-NH2) = O=C(C1CC(N[*:3])CN1[*:1])[*:2]; Pro(4S-NH2) = N[C@@H]1CN[C@H](C(=O)O)C1; ξPro(4-NH2) = NC1CNC(C(=O)O)C1
How the values were obtained:
[1] = target: T1, ASGPR (Homo sapiens, UniProt P07306); experiment: ASGPR SPR binding
T1 construct: biotin (biotinylated)
T1 sequence (P07306 1-291): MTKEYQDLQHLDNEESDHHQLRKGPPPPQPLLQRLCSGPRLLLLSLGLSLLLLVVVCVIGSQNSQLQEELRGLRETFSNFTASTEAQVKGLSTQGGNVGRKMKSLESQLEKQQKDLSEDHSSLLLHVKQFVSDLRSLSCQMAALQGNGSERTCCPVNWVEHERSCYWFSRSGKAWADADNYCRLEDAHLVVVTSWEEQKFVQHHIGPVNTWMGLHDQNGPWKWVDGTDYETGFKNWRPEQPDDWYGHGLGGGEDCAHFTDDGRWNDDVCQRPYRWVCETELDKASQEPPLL

[2] = target: IgG; experiment: IgG SPR binding; conditions: second table, read-out: IgG KD
[3] = target: T2, ASGPR receptor on HepG2 cells (ternary complex with AF488-labeled antibody) (Homo sapiens, UniProt P07306); experiment: Ternary complex formation assay (flow cytometry, cell-associated AF488 fluorescence); type: cell-based
T2 construct: host or cells: HepG2
T2 sequence (P07306 1-291): T1 sequence (P07306 1-291)
T2 sequence (P07307 1-311 partner): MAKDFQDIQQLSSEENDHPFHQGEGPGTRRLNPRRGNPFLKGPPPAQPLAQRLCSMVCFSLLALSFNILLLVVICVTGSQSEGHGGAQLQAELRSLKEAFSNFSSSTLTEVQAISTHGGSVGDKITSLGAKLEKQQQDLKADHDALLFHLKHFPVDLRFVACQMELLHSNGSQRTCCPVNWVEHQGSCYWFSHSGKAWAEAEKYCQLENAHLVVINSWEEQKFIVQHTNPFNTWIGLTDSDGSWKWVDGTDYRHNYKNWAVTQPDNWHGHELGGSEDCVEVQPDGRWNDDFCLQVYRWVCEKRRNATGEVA
Method: Human IgG (Sigma-Aldrich, 14506) was covalently labeled with Alexa Fluor 488 using the Alexa Fluor™ 488 Protein Labeling Kit (Thermo Fisher, A10235) following the manufacturer's instructions. HepG2 cells (ATCC, HB-8065) were cultured to about 70% confluence and harvested by trypsinization. Single cell suspensions of HepG2 cells were plated in 96 well plates at 1×10^5 cells/well in cell culture media (DMEM supplemented with 10% FBS) and placed at 4° C. For studies using human IgG, cells were incubated with 100 nM AF488-labeled anti-human IgG and serial dilutions of IgG-based degrader for 1 hour at 4° C. For studies using DNP, cells were incubated with 100 nM AF488-labeled polyclonal rabbit anti-dinitrophenyl (DNP) antibodies (ThermoFisher) and serial dilutions of DNP-based degrader for 1 hour at 4° C. After washing once with ice-cold PBS containing 0.1% BSA and 0.1% sodium azide, cells were resuspended in 150 uL PBS+0.1% BSA and cell-associated AF488 fluorescence was measured by flow cytometry using the iQue® Screener PLUS Flow Cytometer (IntelliCyt). […]

[4] = second table, read-out: ASGPR KD
[5] = read-out: TCF EC50, 100 nM AF488-labeled antibody, 1 hour at 4° C., the 25th table, class symbols
[6] = read-out: ASGPR KD, second table

Compound	Kd [2]	further results
CC(C)CC1NC(=O)C(Cc2cnc[nH]2)NC(=O)C(Cc2c[nH]c3ccccc23)NC(=O)C(C)NC(=O)C2CSSCC(NC(=O)C(Cc3c[nH]c4ccccc34)NC(=O)C(C(C)C)NC(=O)C(CC(C)C)NC(=O)C(CCC(=O)O)NC(=O)CNC1=O)C(=O)NC(C(C)O)C(=O)N1CCCC1C(=O)N1CC(NC(=O)c3ccc(N4CCC(CN5CCN(CC6OCC(Nc7cncc(C(F)(F)F)n7)C(O)C6O)CC5)CC4)nn3)CC1C(=O)NC(CC(=O)O)C(=O)N2 (centres unmarked) [compound 42]	< 100 nM	Kd [1, 4]: < 100 nM; EC50 [3, 5]: < 100 nM
CC(C)CC1NC(=O)C(Cc2cnc[nH]2)NC(=O)C(Cc2c[nH]c3ccccc23)NC(=O)C(C)NC(=O)C2CSSCC(NC(=O)C(Cc3c[nH]c4ccccc34)NC(=O)C(C(C)C)NC(=O)C(CC(C)C)NC(=O)C(CCC(=O)O)NC(=O)CNC1=O)C(=O)NC(C(C)O)C(=O)N1CCCC1C(=O)N1CC(NC(=O)CCCc3cn(CC45COC(O4)C(NC(=O)C(F)(F)F)C(O)C5O)nn3)CC1C(=O)NC(CC(=O)O)C(=O)N2 (centres unmarked) [compound 104]	< 100 nM	EC50 ([3]; read-out: TCF EC50, 100 nM AF488-labeled antibody, 1 hour at 4° C., the 25th table, numeric bounds, nM from footnote): > 10000 nM
CC(C)CC1NC(=O)C(Cc2cnc[nH]2)NC(=O)C(Cc2c[nH]c3ccccc23)NC(=O)C(C)NC(=O)C2CSSCC(NC(=O)C(Cc3c[nH]c4ccccc34)NC(=O)C(C(C)C)NC(=O)C(CC(C)C)NC(=O)C(CCC(=O)N(C)C)NC(=O)CNC1=O)C(=O)NC(C(C)O)C(=O)N1CCCC1C(=O)N1CC(NC(=O)CNC(COCCC(=O)NCCOCCOCCOCCOCC3OCC(Nc4cncc(C(F)(F)F)n4)C(O)C3O)COCCC(=O)NCCOCCOCCOCCOCC3OCC(Nc4cncc(C(F)(F)F)n4)C(O)C3O)CC1C(=O)NC(C)C(=O)N2 (centres unmarked) [compound 72] (cyclo(GE(NMe2)LVWCTP[ξPro(4ξ-NH2)](X1)ACAWHL); disulfide 6-11; configuration not given here)	< 100 nM	Kd [1, 6]: < 100 nM; EC50 [3, 5]: < 100 nM
CC(C)CC1NC(=O)C(Cc2cnc[nH]2)NC(=O)C(Cc2c[nH]c3ccccc23)NC(=O)C(C)NC(=O)C2CSSCC(NC(=O)C(Cc3c[nH]c4ccccc34)NC(=O)C(C(C)C)NC(=O)C(CC(C)C)NC(=O)C(CCC(=O)O)NC(=O)CNC1=O)C(=O)NC(C(C)O)C(=O)N1CCCC1C(=O)N1CC(NC(=O)CNC(COCCC(=O)NCC3OCC(Nc4cncc(C(F)(F)F)n4)C(O)C3O)COCCC(=O)NCC3OCC(Nc4cncc(C(F)(F)F)n4)C(O)C3O)CC1C(=O)NC(CC(=O)O)C(=O)N2 (centres unmarked) [compound 41]	< 100 nM	Kd [1, 6]: < 100 nM; EC50 [3, 5]: < 100 nM
COC1OC(Cn2cc(CCCC(=O)NC3CC4C(=O)NC(CC(=O)O)C(=O)NC5CSSCC(NC(=O)C(Cc6c[nH]c7ccccc67)NC(=O)C(C(C)C)NC(=O)C(CC(C)C)NC(=O)C(CCC(=O)O)NC(=O)CNC(=O)C(CC(C)C)NC(=O)C(Cc6cnc[nH]6)NC(=O)C(Cc6c[nH]c7ccccc67)NC(=O)C(C)NC5=O)C(=O)NC(C(C)O)C(=O)N5CCCC5C(=O)N4C3)nn2)C(O)C(O)C1NC(C)=O (centres unmarked) [compound 79]	< 100 nM	Kd [1, 4]: > 1000 nM
CC(C)CC1NC(=O)C(Cc2cnc[nH]2)NC(=O)C(Cc2c[nH]c3ccccc23)NC(=O)C(C)NC(=O)C2CSSCC(NC(=O)C(Cc3c[nH]c4ccccc34)NC(=O)C(C(C)C)NC(=O)C(CC(C)C)NC(=O)C(CCC(=O)O)NC(=O)CNC1=O)C(=O)NC(C(C)O)C(=O)N1CCCC1C(=O)N1CC(N)CC1C(=O)NC(C)C(=O)N2 (centres unmarked) [compound 54] (cyclo(GELVWCTP[ξPro(4-NH2)]ACAWHL); disulfide 6-11; configuration not given here)	< 100 nM	–
CNC(=O)CCC1NC(=O)CNC(=O)C(CC(C)C)NC(=O)C(Cc2cnc[nH]2)NC(=O)C(Cc2c[nH]c3ccccc23)NC(=O)C(C)NC(=O)C2CSSCC(NC(=O)C(Cc3c[nH]c4ccccc34)NC(=O)C(C(C)C)NC(=O)C(CC(C)C)NC1=O)C(=O)NC(C(C)O)C(=O)N1CCCC1C(=O)N1CC(N)CC1C(=O)NC(CC(=O)O)C(=O)N2 (centres unmarked) [compound 64]	–	Kd [1, 4]: < 100 nM
CC(C)CC1NC(=O)C(Cc2cnc[nH]2)NC(=O)C(Cc2c[nH]c3ccccc23)NC(=O)C(C)NC(=O)C2CSSCC(NC(=O)C(Cc3c[nH]c4ccccc34)NC(=O)C(C(C)C)NC(=O)C(CC(C)C)NC(=O)C(CCC(=O)O)NC(=O)CNC1=O)C(=O)NC(C(C)O)C(=O)N1CCCC1C(=O)N1CC(NC(=O)c3ccc(N4CCC(CN5CCN(CC6OCC(Nc7cncc(C(F)(F)F)n7)C(O)C6O)CC5)CC4)cc3)CC1C(=O)NC(CC(=O)O)C(=O)N2 (centres unmarked) [compound 98]	< 100 nM	EC50 [3, 5]: < 100 nM

Continued, in another order:

Kd [2]	Compound	further results
< 100 nM	CC(C)CC1NC(=O)C(Cc2cnc[nH]2)NC(=O)C(Cc2c[nH]c3ccccc23)NC(=O)C(C)NC(=O)C2CSSCC(NC(=O)C(Cc3c[nH]c4ccccc34)NC(=O)C(C(C)C)NC(=O)C(CC(C)C)NC(=O)C(CCC(=O)O)NC(=O)CNC1=O)C(=O)NC(C(C)O)C(=O)N1CCCC1C(=O)N1CC(NC(=O)CCCc3cn(CC(=O)NC(COCCC(=O)NCCOCCOCCOCCOCC4OCC(Nc5cncc(C(F)(F)F)n5)C(O)C4O)COCCC(=O)NCCOCCOCCOCCOCC4OCC(Nc5cncc(C(F)(F)F)n5)C(O)C4O)nn3)CC1C(=O)NC(CC(=O)O)C(=O)N2 (centres unmarked) [compound 77]	EC50 ([3]; 100 nM AF488-labeled antibody, 1 hour at 4° C., the 25th table, class symbols, read-out: TCF EC50): < 100 nM
< 100 nM	CC(C)CC1NC(=O)C(Cc2cnc[nH]2)NC(=O)C(Cc2c[nH]c3ccccc23)NC(=O)C(C)NC(=O)C2CSSCC(NC(=O)C(Cc3c[nH]c4ccccc34)NC(=O)C(C(C)C)NC(=O)C(CC(C)C)NC(=O)C(CCC(=O)O)NC(=O)CNC1=O)C(=O)NC(C(C)O)C(=O)N1CCCC1C(=O)N1CC(N)CC1C(=O)NC(CC(=O)O)C(=O)N2 (centres unmarked) [compound 56]	–
< 100 nM	C#CCCCC(=O)NC1CC2C(=O)NC(CC(=O)O)C(=O)NC3CSSCC(NC(=O)C(Cc4c[nH]c5ccccc45)NC(=O)C(C(C)C)NC(=O)C(CC(C)C)NC(=O)C(CCC(=O)O)NC(=O)CNC(=O)C(CC(C)C)NC(=O)C(Cc4cnc[nH]4)NC(=O)C(Cc4c[nH]c5ccccc45)NC(=O)C(C)NC3=O)C(=O)NC(C(C)O)C(=O)N3CCCC3C(=O)N2C1 (centres unmarked) [compound 75]	–
< 100 nM	CC(C)CC1NC(=O)C(Cc2cnc[nH]2)NC(=O)C(Cc2c[nH]c3ccccc23)NC(=O)C(C)NC(=O)C2CSSCC(NC(=O)C(Cc3c[nH]c4cc(Cl)ccc34)NC(=O)C(C(C)C)NC(=O)C(CC(C)C)NC(=O)C(CCC(=O)O)NC(=O)CNC1=O)C(=O)NC(C(C)O)C(=O)N1CCCC1C(=O)N1CC(N)CC1C(=O)NC(CC(=O)O)C(=O)N2 (centres unmarked) [compound 61]	–
< 100 nM	CC(C)C[C@@H]1NC(=O)[C@H](Cc2cnc[nH]2)NC(=O)[C@H](Cc2c[nH]c3ccccc23)NC(=O)[C@H](C)NC(=O)[C@@H]2CSSC[C@H](NC(=O)[C@H](Cc3c[nH]c4ccccc34)NC(=O)[C@H](C(C)C)NC(=O)[C@H](CC(C)C)NC(=O)[C@H](CCC(=O)O)NC(=O)CNC1=O)C(=O)N[C@@H]([C@@H](C)O)C(=O)N1CCC[C@@H]1C(=O)N1C[C@H](N)C[C@H]1C(=O)N[C@@H](CC(=O)O)C(=O)N2 [compound 95]	–
< 100 nM	CC(C)CC1NC(=O)C(C)NC(=O)CNC(=O)C(CC(C)C)NC(=O)C(Cc2cnc[nH]2)NC(=O)C(Cc2c[nH]c3ccccc23)NC(=O)C(C)NC(=O)C2CSSCC(NC(=O)C(Cc3c[nH]c4ccccc34)NC(=O)C(C(C)C)NC1=O)C(=O)NC(C(C)O)C(=O)N1CCCC1C(=O)N1CC(N)CC1C(=O)NC(CC(=O)O)C(=O)N2 (centres unmarked) [compound 59] (cyclo(GALVWCTP[ξPro(4-NH2)]DCAWHL); disulfide 6-11; configuration not given here)	–
< 100 nM	CC(C)C[C@@H]1NC(=O)[C@H](C)NC(=O)CNC(=O)[C@H](CC(C)C)NC(=O)[C@H](Cc2cnc[nH]2)NC(=O)[C@H](Cc2c[nH]c3ccccc23)NC(=O)[C@H](C)NC(=O)[C@@H]2CSSC[C@H](NC(=O)[C@H](Cc3c[nH]c4ccccc34)NC(=O)[C@H](C(C)C)NC1=O)C(=O)N[C@@H]([C@@H](C)O)C(=O)N1CCC[C@@H]1C(=O)N1C[C@@H](N)C[C@H]1C(=O)N[C@@H](C)C(=O)N2 [compound 67] (cyclo(ACAWHLGALVWCT[dP][Pro(4S-NH2)]); disulfide 2-12)	–
< 100 nM	CC(C)CC1NC(=O)C(Cc2cnc[nH]2)NC(=O)C(Cc2c[nH]c3ccccc23)NC(=O)C(C)NC(=O)C2CSSCC(NC(=O)C(Cc3c[nH]c4ccc(Cl)cc34)NC(=O)C(C(C)C)NC(=O)C(CC(C)C)NC(=O)C(CCC(=O)O)NC(=O)CNC1=O)C(=O)NC(C(C)O)C(=O)N1CCCC1C(=O)N1CC(N)CC1C(=O)NC(CC(=O)O)C(=O)N2 (centres unmarked) [compound 62]	–

— patent publication US20260083851A1 (AVILAR THERAPEUTICS, INC., priority 2022, published 2026)
